Assay results taken from US20170080198A1, “DEVICES AND METHODS FOR ENHANCING THE TOPICAL APPLICATION OF A BENEFIT AGENT” (Johnson & Johnson Consummer Inc., priority 2015, published 2017).

Test: In vitro skin permeation study, Franz diffusion cell, with or without ultrasound (sonophoresis)
Format: in vitro ADME, human
Details: for UT60°/Non-UTGel 1 (permeation enhancement factor): Study 2, Gel 1 with 60° sonophoresis vs Gel 1 passive; for UT15°/Non-UTGel 1 (permeation enhancement factor) / UT90°/Non-UTGel 1 (permeation enhancement factor): Study 3; for UT15°/Non-UTGel 1 (permeation enhancement factor): Gel 1 with 15° sonophoresis vs Gel 1 passive; for UT90°/Non-UTGel 1 (permeation enhancement factor): Gel 1 with 90° sonophoresis vs Gel 1 passive
Description: The experimental setup to run sonophoresis (ultrasound) studies with Franz cell diffusion cells consisted of a custom-built universal generator capable of driving ultrasonic transducers in the 20 kHz-2 MHz range with electronic power up to 60 W (Voltage+/−30V, Current: 2A, duty cycle 50%) with a square waveform. The real power delivered to the transducer depended on the specific experimental conditions and is specified for each experiment. The driving waveform was delivered to the transducer through a coaxial cable having a BNC connector at one end and a custom non-coaxial connector at the transducer end.
The tranducer was piezoelectric and had either a disk shaped form (either 20 or 25 mm in diameter) or a rectangular shape 10×20 mm^2). The thickness of the transducer depended on its fundamantal frequency being inversely proportional with it. In order to prevent the liquid or the gel from perturbing the electrical connection, each transducer was encapsulated in a plastic case leaving only one side of the transducer exposed to the topical composition. The case was made out of a rigid plastic and the transducers were sealed with silicone adhesive to enable them to oscilalte more or less freely. The case also enabled the electrical connections to be isolated from the topical composition.
For sonophoresis experiments where the ultrasonic wave energy was delivered perpendicular to the skin, disk-shaped transducers were used in the encapsulation setup described above. For the angled ultrasound application the case encapsulating the ultrasonic transducer was assembled in a hinged configuration, enabling angles between 15 and 90 degrees (perpendicular). Note: an angle of 0 degrees would send the ultrasonic wave parallel with the skin surface.
In vitro skin permeation studies on 5% Ibuprofen gel compositions without ultrasound (passive diffusion), or facilitated by the application of ultrasound (sonophoresis), through human cadaver skin were performed as follows:
A skin penetration study evaluated the penetration of ibuprofen through the human skin for the inventive sample prepared as disclosed in Example 1. A commercial ibuprofen gel product, IBULEVE Ibuprofen Gel (by DDD ltd, Watford, Herts, WD18 7JJ, UK) was used as a benchmark, which contains 5% W/W ibuprofen, also IMS (Industrial Methylated Spirits), carbomer, propylene glycol, diethylamine and purified water according to the product label on its package. A well-known Franz diffusion cell method (taught in US20020006418 A1 which is hereby incorporated by reference) was used. […] A magnetic stirrer bar was added in the […]. The liquid receptor was filled with Phosphate-buffered saline (PBS) solution. Air bubbles in the […] were removed. The system was thermostated at 37° C. above a magnetic stirrer to ensure the homogeneity of the liquid receptor during the experiment. A human cadaver skin sample from a commercial tissue bank (Ohio Valley Tissue and Skin Center, Cincinnati, Ohio, dermatomed to approximately 0.4 mm) was cut to fit the glass diffusion cell and the skin was mounted on the Franz cell.
For the diffusion cells designated to be tested for passive diffusion, a test gel sample of 0.2 ml was applied on the skin surface. For the diffusion cells designated to test for sonophoresis, additional test sample (2-5 ml) was added in order to assure the entire, or at least a large portion, of the ultrasonic transducer tip was immersed by the test gel during the ultrasound treatment. The excess gel was promptly removed from the donor cell after the ultrasound treatment so that the remaining test gel was approximately 0.2 ml.
Ultrasound treatments were carried out with the following test conditions: • a) Conventional ultrasound treatment with 90 degree angle (°) between the ultrasound direction and the skin surface; • b) Angled Ultrasound treatment with less than 90 degree angle between the ultrasound direction and the skin surface. […]

Question: Which “UT60°/Non-UTGel 1 (permeation enhancement factor)” value (6 hr) does the source give for CC(C)Cc1ccc(C(C)C(=O)O)cc1 (stereo not drawn) [ibuprofen] here?
Answer: approximately 2.9 fold

Question: And the “UT60°/Non-UTGel 1 (permeation enhancement factor)” value (24 hr)?
Answer: ~2.0 fold

Question: What about the “UT15°/Non-UTGel 1 (permeation enhancement factor)” value (6 hr) of the same compound?
Answer: approximately 3.0 fold

Question: What about the “UT15°/Non-UTGel 1 (permeation enhancement factor)” value (24 hr) of the same compound?
Answer: approximately 3.0 fold

Question: What about the “UT90°/Non-UTGel 1 (permeation enhancement factor)” value (6 hr) of the same compound?
Answer: approximately 2.3 fold

Question: And the “UT90°/Non-UTGel 1 (permeation enhancement factor)” value (24 hr)?
Answer: ~2.0 fold
